Data on three compounds can be found in US20130209986A1, “METHOD FOR ENHANCING BUTYRATE PRODUCTION BY CLOSTRIDIUM TYROBUTYRICUM” (KOREA INSTITUTE OF SCIENCE AND TECHNOLOGY, priority 2012, published 2013).

Test [1] concerns Clostridium tyrobutyricum strains. As to the kind of experiment: Fermentation of Clostridium tyrobutyricum with an electron transfer mediator added to the P2 culture medium (Experimental Example 1). Type of test: cell-based. The following applies: for Enhancement of butyrate production by simply adding the mediator to the medium: simple addition, no reduction electrode. The protocol:
The P2 culture medium (Qureshi and Blaschek 1999) of pH 6.4±0.1 containing sucrose of 20 g/L instead glucose was sterilized. The Methyl Viologen (MV) (E°′=−446 mV) (Aldrich, South Korea) was added to the sterilized P2 culture medium with the concentrations of 0.1 mM (embodiment 1-1), 0.4 mM (embodiment 1-2), 0.5 mM (embodiment 1-3), 1.0 mM (embodiment 1-4), 2.0 mM (embodiment 1-5), 5.0 mM (embodiment 1-6) and 10.0 mM (embodiment 1-7). The separated Clostridium tyrobutyricum strains were inoculated on the MV-added P2 culture medium and were cultured at 37° C. and 150 rpm.
The strains were cultured under the same conditions as the conditions of the embodiments 1-1 to 1-7 except for the strains which didn't have an added MV.
The strains were cultured under the same conditions as the conditions of the embodiments 1-1 to 1-7 except for the strains on which 0.1 mM and 0.5 mM of the Neutral Red (NR) (E°′=−325 mV) (Aldrich, South Korea) were added instead of the MV.
The strains were cultured under the same conditions as the conditions of the embodiments 1-1 to 1-7 except for the strains on which 0.5 mM of anthraquinone-1,5-disulfonic acid, AQDS) (E°′=−184 mV) (Aldrich, South Korea) was added instead of the MV.
The butyrate and acetate produced through the embodiments 1-1 to 1-7, the comparison example 1, the comparison examples 2-1 to 2-7 and the comparison examples 3-1 to 3-7 were analyzed by HP-INNOWax column (30 m×250 μm×0.25 μm, Agilent Technologies and the gas chromatography (GC, Agilent technology 6890N Network GC System) with the frame-ionized detector. The hydrogen and carbon dioxide were quantified by multiplying the gas composition with the increased gas volume. The gas composition percentage was analyzed by the GC having a heat conductivity detector. The consumed sucrose concentration was quantified by a high performance liquid chromatography (HPLC) (Hi-plex H, Agilent, Santa Clara, Calif.) with 5 mM of sulfuric acid as a mobile phase at the flow rate of 0.5 mLmin^−1. The growth of microorganisms was checked at 600 nm of absorbance by using Shimadzu UVmini-1240 spectrophotometer or was checked with the Chemical Oxygen Demand (COD, mg/L unit) induced by the base soluble COD from the total COD by using COD vials (C-mac, South Korea, concentration range of 10-1,500 mg/L). The obtained values were average values obtained as the experiments were repeatedly performed three times or four times under a corresponding condition.

Test [2] has as its system Clostridium tyrobutyricum. The experiment in a line: Fermentation of Clostridium tyrobutyricum in a bioelectrical reactor (BER) with reduction electrode and electron transfer mediator (Experimental Example 2). Type of test: cell-based. The method, then: A Bioelectrical Reactor (BER) formed of Pyrex was manufactured, which was specially designed for the sake of the anaerobic bacteria culture by changing a little the H-type reactor with a dual chamber (450 mL each). The reduction electrode (cathode) was a graphite felt electrode (4.5 cm×12 cm), and the oxidation electrode (anode) was a Pt plate electrode (2.5 cm×5 cm). The reference electrode was Ag/AgCl, 3 M KCl (BASi, West Lafayette, Ind.) and was dipped at a portion of the reduction electrode. The portions of the oxidation electrode and the reduction electrode were separated by Nafion 117 positive ion-exchange membrane (Naracell-tech, South Korea). The biological gas was collected by a Tedlar bag connected with a stainless steel fitting inserted in a reduction electrode stopper. The temperature of the reactor was maintained at 37±1° C. by a heating tape (Daihan, South Korea). The temperature sensor was inserted into a partition of the oxidation electrode by way of the stainless steel stand rod.
The portion of the reduction electrode of the reactor has features in that the neutral red was filled with the P2 medium added with 0.1 mM, and the portion of the oxidation electrode was filled with hexacyanoferrate [K4(Fe(CN)6)·3H2O]. The BER operated under a constant reduction electrode potential of −400 mV (vs. Ag/AgCl). The above mentioned potential was set by the potentiostat/galvanostat (EG&G Princeton Applied Research, Model 273A, Princeton, N.J.) which could be controlled by a computer. So, the current between the oxidation electrode and the reduction electrode was monitored. The reduction voltage applied to the reduction electrode was determined from the redox peak in the cyclic voltammogram of the culture liquid to which the neutral red was added at the scan speed of 20 mV/s based on the reduction electrode versus Ag/AgCl. The reduction of the neutral red by the reduction electrode appeared as the color of the solution turned from the red (NRox) to the yellow (NRred) when it was balanced to the negative potential within 5-30 minutes. For the sake of pH-adjusted BER operation, pH was maintained at 6 by temporarily adding 3M NaOH.
The embodiment 3 was performed in the same manner as the embodiment 2 except for the adjustment of pH.
The embodiment 4 was performed in the same manner as the embodiment 2 except that the portion of the reduction electrode of the reactor was filed with the P2 medium added with the MV of 0.5 mM of concentration was operated under a constant reduction electrode potential of −750 mV (vs. Ag/AgCl). In case of the MV, the reduction had features in that the color of the solution turned from a colorlessness (MVox) to a purple color (MVred).

Setting [3] is: methyl viologen 0.1 mM (embodiment 1-1).
The mark [4] stands for this setting: methyl viologen 0.4 mM (embodiment 1-2).
Where [5] appears, read: methyl viologen 0.5 mM (embodiment 1-3).
Setting [6] is: methyl viologen 1 mM (embodiment 1-4).
The mark [7] stands for this setting: methyl viologen 2 mM (embodiment 1-5).
Setting [8] is: methyl viologen 5 mM (embodiment 1-6).
Where [9] appears, read: methyl viologen 10 mM (embodiment 1-7).
The mark [10] stands for this setting: Embodiment 4: methyl viologen 0.5 mM, −750 mV.
The mark [11] stands for this setting: Embodiment 2: BER with neutral red 0.1 mM, −400 mV, pH 6 controlled.
The mark [12] stands for this setting: Embodiment 3: BER with neutral red 0.1 mM, −400 mV, no pH control.

On to `O=C1c2cccc(S(=O)(=O)O)c2C(=O)c2cccc(S(=O)(=O)O)c21` [AQDS, anthraquinone-1,5-disulfonic acid], for which, in test [1], the “Enhancement of butyrate production by simply adding the mediator to the medium” value (“Enhancement of butyrate production” for short) is listed as “impossible to enhance the production of butyrate”.

`C[n+]1ccc(-c2cc[n+](C)cc2)cc1` [Methyl viologen, Methyl Viologen]: the “Final concentration of butyrate as compared to the comparison group” value in test [1] (0.5 mM, simple addition without reduction electrode) was “about 1.5 times”. Moreover, the “Production of butyrate among MV, NR and AQDS (FIG. 2)” value in test [1] (mediators added at 0.5 mM) is reported as “highest”. Besides, in test [1] (setting [3]), the “Bio-gas % vs. control” value turned out to be 82%, the Bio-gas vol is on record as 110 mL, the “Butyrate % vs. control” value worked out at 115% and the Butyrate final conc. is listed as 6.5 g/L. In addition, in test [1] (methyl viologen 0.1 mM (embodiment 1-1), P2 medium sucrose 20 g/L, 37° C.), the “OD (600 nm)” value is on record as 6.2 (±0.4). In test [1] (setting [4]), the “Bio-gas % vs. control” value came out at 80%, the Bio-gas vol is 107 mL, the “Butyrate % vs. control” value amounted to 128% and the Butyrate final conc. turned out to be 7.3 g/L. For the same compound, in test [1] (setting [4]), the “OD (600 nm)” value is on record as 6.3 (±0)^. In addition, in test [1] (setting [5]), the “Bio-gas % vs. control” value came out at 65%, the Bio-gas vol was 87 mL, the “Butyrate % vs. control” value came out at 150% and the Butyrate final conc. was determined as 8.5 g/L. In test [1] (setting [5]), the “OD (600 nm)” value was 5.8 (±0.3). For the same compound, in test [1] (setting [6]), the “Bio-gas % vs. control” value was 50%, the Bio-gas vol amounted to 67 mL, the “Butyrate % vs. control” value came out at 109% and the Butyrate final conc. turned out to be 6.2 g/L. For the same compound, the “OD (600 nm)” value in test [1] (setting [6]) is given as 5.4 (±0.8). Also, in test [1] (setting [7]), the “Bio-gas % vs. control” value worked out at 34%, the Bio-gas vol is 46 mL, the “Butyrate % vs. control” value is given as 112% and the Butyrate final conc. came out at 6.4 g/L. Further, the “OD (600 nm)” value in test [1] (setting [7]) is 3.9 (±0.9). Moreover, in test [1] (setting [8]), the “Bio-gas % vs. control” value was 3%, the Bio-gas vol amounted to 4 mL, the “Butyrate % vs. control” value is recorded as 14% and the Butyrate final conc. was determined as 0.8 g/L. Moreover, the “OD (600 nm)” value in test [1] (setting [8]) is given as 1.5 (±1.9). In test [1] (setting [9]), the “Bio-gas % vs. control” value was 3%, the Bio-gas vol amounted to 4 mL, the “Butyrate % vs. control” value was 12% and the Butyrate final conc. is given as 0.7 g/L. Further, the “OD (600 nm)” value in test [1] (setting [9]) is 0.2 (±0.1). Besides, in test [2] (setting [10]), the “Acetate productivity (maximum productivity)” value (shortened to “Acetate productivity”) is on record as 0.25 ± 0 g/L, h^−1; the “Butyrate productivity (maximum productivity)” value (“Butyrate productivity” below) is given as 0.34 ± 0.01 g/L, h^−1; the Butyrate yield was 0.43 ± 0.02 g butyrate/g sucrose; the Final butyrate concentration is 7.1 ± 0.4 g/L. In test [2] (setting [10]), the “Maximum O.D. (600 nm)” value is recorded as 5.3 ± 0.4; the Specific growth rate came out at 0.10 ± 0.01 h⁻¹; the “Sucrose uptake rate (maximum uptake rate)” value (shortened to “Sucrose uptake rate”) is 0.85 ± 0.05 g/L, h^−1. In test [2] (MV, embodiment 4, −750 mV vs. Ag/AgCl), the “Production of butyrate in the reduction electrode system” value is recorded as “didn't help enhance the production of butyrate”.

With `Cc1cc2nc3ccc(N(C)C)cc3nc2cc1N.Cl` [neutral red, Neutral Red], the “Enhancement of butyrate production” value in test [1] is “didn't make any effects”. In addition, the “Enhancement of butyrate production” value in test [1] (listed as NR) is on record as “impossible to enhance the production of butyrate”. In test [2] (setting [11]), the “Acetate productivity” value is given as 0 g/L, h^−1; the “Butyrate productivity” value is on record as 0.28 ± 0.01 g/L, h^−1; the Butyrate yield is reported as 0.44 ± 0.04 g butyrate/g sucrose; the Final butyrate concentration amounted to 8.8 ± 0.9 g/L. In test [2] (setting [11]), the “Maximum O.D. (600 nm)” value worked out at 5.1 ± 0.7; the Specific growth rate stood at 0.87 ± 0.64 h⁻¹; the “Sucrose uptake rate” value is listed as 0.67 ± 0 g/L, h^−1. Besides, in test [2] (setting [12]), the “Acetate productivity” value is reported as 0 g/L, h^−1; the “Butyrate productivity” value is listed as 0.31 ± 0.07 g/L, h^−1; the Butyrate yield was determined as 0.45 ± 0.02 g butyrate/g sucrose; the Final butyrate concentration worked out at 6.7 ± 0.3 g/L. Also, in test [2] (setting [12]), the “Maximum O.D. (600 nm)” value came out at 5.0 ± 0.4; the Specific growth rate was found to be 0.11 ± 0.01 h⁻¹; the “Sucrose uptake rate” value is on record as 0.64 ± 0.31 g/L, h^−1. Besides, the “Production of butyrate (FIG. 4)” value in test [2] (embodiment 2, neutral red reduction electrode system, increased from 5 g/L) is reported as 8 g/L. Moreover, in test [2] (embodiments 2 and 3, neutral red), the “Acetic acid production in the reduction electrode system” value is “did not produce acetic acid”. Moreover, the “Production of butyrate in the reduction electrode system” value in test [2] (neutral red, embodiments 2 and 3, −400 mV vs. Ag/AgCl) was “increase in the production of butyrate”.
